According to patent EP0006128A1, “2,3-Dihydro-2-methyl-3-(2-(dimethylamino)-propyl)-3-phenyl-1H-indol-1-carboxaldehyde, process for its preparation and pharmaceutical preparations containing it” (Dr. Karl Thomae GmbH, priority 1978, dated 1980):
Where two headings read alike, the source gives them in different places.

How the values were obtained:
wachen weißen Ratten = test: Cough test in conscious rats, cough provoked by inhaled citric acid spray; type: in vivo; details: Rattus norvegicus, po, 0.5 h; male rats, per os as Tylose suspension, 7,5 % citric acid spray over 2 min, cough count 30 min after application, dose halving the number of coughs
Excerpt: Die Hustenversuche wurden an wachen weißen Ratten (Geschlecht: männlich) durchgeführt. Die Hustenprovokation erfolgte durch Inhalation eines 7,5 %igen Zitronensäuresprays über 2 Minuten. 10 Tiere pro Dosis erhielten die Substanz als Tyloseaufschwemmung peroral appliziert. Die Bewertung erfolgte aus der durchschnittlichen prozentualen Abnahme der Zahl der Hustenstöße 30 Minuten nach Applikation gegenüber den Leerwerten. (Weitere methodische Angaben: ENGELHORN und PÜSCHMANN, Arzneim.-Forsch. 13, 474-480,(1963)). Die ED50 ist die Dosis, nach deren Verabreichung die Zahl der Hustenstöße durchschnittlich um die Hälfte vermindert wird, die Berechnung erfolgte nach der Methode von Litchfield und Wilcoxon. Es wurde für das Racemat eine ED50 von 3,9 mg/kg per os gefunden.

Katze = test: Antitussive effect in the cat, method of Domenjoz; type: in vivo; details: dose range 0,5 bis 2 mg/kg i.v.
[1] = test system: durch Acetylcholin hervorgerufenen Bronchialspasmen; test: Broncholytic effect in guinea pigs, method of Konzett and Rössler (acetylcholine-induced bronchospasm); type: in vivo, Meerschweinchen; details: Cavia porcellus, iv, i.v. injection, dose giving 50 % reduction, read-out: Herabsetzung der durch Acetylcholin hervorgerufenen Bronchialspasmen um 50 %
Protocol: Die broncholytische Wirkung wurde an Meerschweinchen nach der Methode von KONZETT und RÖSSLER (Arch. exp. Path. Pharmakol. 195, 71, (1940)) geprüft. Die Herabsetzung der durch Acetyl- cholin hervorgerufenen Bronchialspasmen um 50 % wurde durch i.v.-Injektion von 1,5 mg/kg des Racemats erreicht, beim (-)-Enantiomeren reichten bereits 1 mg/kg aus, um etwa den gleichen Effekt zu erreichen.

Acute toxicity in mice = details: mouse, in vivo, mice of both sexes, 20 g, 14 days observation
Protocol: Für die Bestimmung der akuten Toxizität wurden Mäuse beider Geschlechter mit einem Körpergewicht von 20 g verwendet. 10 Tiere pro Dosis erhielten die Substanz einmalig appliziert. Die Berechnung der DL50, der Dosis, nach deren Verabreichung 50 % der Tiere innerhalb der Beobachtungszeit verstarben, erfolgte i nach der Methode von LITCHFIELD und WILCOXON nach einer Beobachtungszeit von 14 Tagen: • Racemat CL50 p.o.: 545 mg/kg DL50 i.v.: 66 mg/kg, […]

[2] = po, single dose p.o., read-out: DL50 p.o.

CC(CC1(c2ccccc2)c2ccccc2N(C=O)C1C)N(C)C (racemic) [Racemat, Rac. 2,3-Dihydro-2-methyl-3-[2-(dimethylamino)-propyl]-3-phenyl-1H-indol-1-carboxaldehyd]
ED50 (wachen weißen Ratten): 3.9 mg/kg
antitussive Wirkung (Katze): deutliche hustenstillende Wirkung
ED50 [1]: 1.5 mg/kg
LD50 at 336 h (Acute toxicity in mice; iv, single dose i.v., read-out: DL50 i.v.): 66 mg/kg
LD50 at 336 h (Acute toxicity in mice; [2]): 545 mg/kg

CC(CC1(c2ccccc2)c2ccccc2N(C=O)C1C)N(C)C (single isomer, unassigned; (+)) [(+)-Enantiomeres, (+)-2,3-Dihydro-2-methyl-3-[2-(dimethylamino)-propyl]-3-phenyl-1H-indol-1-carboxaldehyd]
antitussive Wirkung (Katze): deutliche hustenstillende Wirkung
LD50 at 336 h (Acute toxicity in mice; [2]): ~500 mg/kg

CC(CC1(c2ccccc2)c2ccccc2N(C=O)C1C)N(C)C (single isomer, unassigned; (-)) [(-)-Enantiomeres, (-)-2,3-Dihydro-2-methyl-3-/2-(dimethylamino)-propyl/-3-phenyl-1H-indol-1-carboxaldehyd]
ED50 [1]: ~1 mg/kg
LD50 at 336 h (Acute toxicity in mice; [2]): ~560 mg/kg
